Assay results reported in PubChem BioAssay (NCI).
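Five compound concentrations were applied to cells in 96-well plates for 48 hours; endpoints were derived by simple linear interpolation of the resulting dose-response curve. At the TGI there is no net growth.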

How the values were obtained:
Test in all cases: NCI tumour cell line growth inhibition, 48 h
786-0 renal = test system: 786-0 renal
ACHN renal = test system: ACHN renal
HCT-116 colon = test system: HCT-116 colon
HCT-15 colon = test system: HCT-15 colon
HL-60(TB) leukemia = test system: HL-60(TB) leukemia
HOP-92 NSCLC = test system: HOP-92 NSCLC
IGROV1 ovarian = test system: IGROV1 ovarian
KM12 colon = test system: KM12 colon
LOX IMVI melanoma = test system: LOX IMVI melanoma
M14 melanoma = test system: M14 melanoma
OVCAR-3 ovarian = test system: OVCAR-3 ovarian
PC-3 prostate = test system: PC-3 prostate
RXF 393 renal = test system: RXF 393 renal
SF-295 CNS = test system: SF-295 CNS
SK-MEL-2 melanoma = test system: SK-MEL-2 melanoma
SK-MEL-28 melanoma = test system: SK-MEL-28 melanoma
SK-MEL-5 melanoma = test system: SK-MEL-5 melanoma
U251 CNS = test system: U251 CNS
UACC-257 melanoma = test system: UACC-257 melanoma

Row | Compound | TGI (786-0 renal) | TGI (ACHN renal) | TGI (HCT-116 colon) | TGI (HCT-15 colon) | TGI (HL-60(TB) leukemia) | TGI (HOP-92 NSCLC) | TGI (IGROV1 ovarian) | TGI (KM12 colon) | TGI (LOX IMVI melanoma) | TGI (M14 melanoma) | TGI (OVCAR-3 ovarian) | TGI (PC-3 prostate) | TGI (RXF 393 renal) | TGI (SF-295 CNS) | TGI (SK-MEL-2 melanoma) | TGI (SK-MEL-28 melanoma) | TGI (SK-MEL-5 melanoma) | TGI (U251 CNS) | TGI (UACC-257 melanoma)
1 | O=c1[nH]cnc2c1ncn2C1SC(CO)C(O)C1O (configuration not stated) | > 100 µM | > 100 µM | > 100 µM | > 100 µM | > 100 µM | > 100 µM | > 100 µM | > 100 µM | > 100 µM | > 100 µM | > 100 µM | > 100 µM | > 100 µM | > 100 µM | > 100 µM | > 100 µM | > 100 µM | > 100 µM | > 100 µM
2 | CC(=O)[C@]1(C)[C@H](C)O[C@](C)(CO)[C@H]1O[Si](C)(C)c1ccccc1 | > 100 µM | > 100 µM | > 100 µM | 84.6 µM | 72.4 µM | > 100 µM | 41.4 µM | > 100 µM | 44.4 µM | > 100 µM | > 100 µM | > 100 µM | 46 µM | > 100 µM | > 100 µM | > 100 µM | > 100 µM | > 100 µM | > 100 µM
3 | NN/C(=N\S(=O)(=O)c1cccc2nsnc12)Nc1ccc(Cl)cc1 | > 100 µM | > 100 µM | > 100 µM | > 100 µM | > 100 µM | > 100 µM | > 100 µM | > 100 µM | > 100 µM | > 100 µM | > 100 µM | > 100 µM | > 100 µM | > 100 µM | > 100 µM | > 100 µM | > 100 µM | > 100 µM | > 100 µM
4 | Cc1ccc(C2SC(N)=Nc3c2c(C)nn3C(=O)c2ccc(Cl)cc2)cc1 (configuration not stated) | > 10 µM | > 10 µM | > 10 µM | > 10 µM | > 10 µM | > 10 µM | > 10 µM | > 10 µM | > 10 µM | > 10 µM | > 10 µM | > 10 µM | > 10 µM | > 10 µM | > 10 µM | > 10 µM | > 10 µM | > 10 µM | > 10 µM
5 | Cc1cc(S(=O)(=O)Nc2nc(N)nc(N(C)C)n2)c(SC(C(=O)O)c2ccccc2)cc1Cl (configuration not stated) | > 10 µM | > 10 µM | > 10 µM | > 10 µM | > 10 µM | > 10 µM | > 10 µM | > 10 µM | > 10 µM | > 10 µM | > 10 µM | > 10 µM | > 10 µM | > 10 µM | > 10 µM | > 10 µM | > 10 µM | > 10 µM | > 10 µM
6 | CC1C(=O)CC[C@@]2(C)C(=O)CCCC12O (some centres not stated) | > 100 µM | > 100 µM | > 100 µM | > 100 µM | > 100 µM | > 100 µM | > 100 µM | > 100 µM | > 100 µM | > 100 µM | > 100 µM | > 100 µM | > 100 µM | > 100 µM | > 100 µM | > 100 µM | > 100 µM | > 100 µM | > 100 µM
7 | N#Cc1nc(NC(=O)c2ccccc2)sc1N | > 10 µM | > 10 µM | > 10 µM | > 10 µM | > 10 µM | > 10 µM | > 10 µM | > 10 µM | > 10 µM | > 10 µM | > 10 µM | > 10 µM | > 10 µM | > 10 µM | > 10 µM | > 10 µM | > 10 µM | > 10 µM | > 10 µM
8 | CN(C)c1ccc(/C=C2\N=C(c3ccccc3)N(/N=C3\C(=O)Nc4ccccc43)C2=O)cc1 | > 100 µM | > 100 µM | > 100 µM | > 100 µM | > 100 µM | > 100 µM | > 100 µM | > 100 µM | > 100 µM | > 100 µM | 65.5 µM | > 100 µM | > 100 µM | > 100 µM | > 100 µM | > 100 µM | > 100 µM | > 100 µM | > 100 µM
9 | COc1ccc(C(=O)C(CC2C(=O)CC(C)(C)C(C(=O)C(=O)Nc3c(C)cccc3C)C2=O)c2ccc(OC)cc2)cc1 (configuration not stated) | > 100 µM | > 100 µM | > 100 µM | > 100 µM | > 100 µM | > 100 µM | > 100 µM | > 100 µM | > 100 µM | > 100 µM | > 100 µM | > 100 µM | > 100 µM | > 100 µM | > 100 µM | > 100 µM | > 100 µM | > 100 µM | > 100 µM
10 | Cc1cccc2c(N)c3cccc(C(=O)NCCN4CCOCC4)c3nc12 | 20.5 µM | 13.1 µM | 24.9 µM | 6.39 µM | 1.2 µM | 23.2 µM | 3.4 µM | 5 µM | 4.28 µM | 7.33 µM | 16.9 µM | 7.19 µM | 2.62 µM | 10.9 µM | 2.61 µM | 6.29 µM | 2.46 µM | 20.5 µM | 7.81 µM
11 | CCOC(=O)c1nc2cc(C(F)(F)F)ccc2nc1Oc1ccc(C(=O)OC)cc1 | > 100 µM | > 100 µM | > 100 µM | > 100 µM | > 100 µM | > 100 µM | > 100 µM | > 100 µM | > 100 µM | > 100 µM | > 100 µM | > 100 µM | > 100 µM | > 100 µM | > 100 µM | > 100 µM | > 100 µM | > 100 µM | > 100 µM
12 | CSc1n[nH]c2n[nH]c(C)c12 | > 100 µM | > 100 µM | > 100 µM | > 100 µM | > 100 µM | > 100 µM | > 100 µM | > 100 µM | > 100 µM | > 100 µM | > 100 µM | > 100 µM | > 100 µM | > 100 µM | > 100 µM | > 100 µM | > 100 µM | > 100 µM | > 100 µM
13 | O=[N+]([O-])c1cc(C(F)(F)F)ccc1S(=O)(=O)N[C@@H]1CCCC[C@H]1NS(=O)(=O)c1ccc(C(F)(F)F)cc1[N+](=O)[O-] | > 42.2 µM | 11.2 µM | 20.1 µM | 10.1 µM | 3.74 µM | 8.31 µM | 7.5 µM | 12.1 µM | 3.24 µM | 8.95 µM | 7.07 µM | 14.1 µM | > 28.1 µM | 9.38 µM | 9.88 µM | 33.3 µM | 8.15 µM | 17.1 µM | > 100 µM
